Source: US20240409934A1, “FOXO1-TARGETED THERAPY FOR THE TREATMENT OF CANCER” (BOARD OF REGENTS, THE UNIVERSITY OF TEXAS SYSTEM, priority 2021, published 2024)

What was measured:
FOXO1 = FOXO1 (Homo sapiens, UniProt Q12778); settings: cited from earlier work
BT549 CSCs = experiment: Gene expression by qRT-PCR in cancer stem cells; assay type: cell-based; settings: 1 μM for 48 hours
Experimental: (§1) Cell culture and drug treatments. Cell lines were obtained from ATCC (American Type Culture Collection, Manassas, VA) and grown under standard conditions (5% CO2, 10% FBS (fetal bovine serum), with 5% antifungal/antibacterial). Cell lines were tested for Mycoplasma using the MycoAlert Mycoplasma Detection Kit (Lonza, Basel Switzerland, cat: LT07-218); all experiments were done with mycoplasma negative cells. U87MG cells were propagated in MEM (Minimal Essential Medium). BT549 and DBTRG cells were propagated in RPMI (Roswell Park Memorial Institute 1640 Medium). LN18, U118MG, A172 and LN229 cells were propagated in DMEM (Dulbecco's Modified Eagle Medium). Neurosphere/cancer stem cell cultures for U87MG and BT549 cell lines were plated with 40,000 cells per mL in 3D Tumorsphere Medium XF (Sigma cat: C-28070, Burlington, MA). BT549 cancer stem cell cultures were supplemented with 1XB27 XenoFree CTS (Gibco/Thermo Fisher Waltham, MA, USA). AS1842856 was purchased from Calbiochem (Danvers, MA) and utilized at 200 nM, 500 nM and 1 μM final concentrations as indicated. […] Samples (cDNAs) were analyzed using (Power SYBR Green Master Mix, Applied Biosystems, Foster City, CA) and the ABI Step-One Real-time system (Carlsbad, CA). Expression levels were normalized to Beta-Tubulin, TUBB in gene expression experiments and calculated using 2-4ACT method (Livak et al., 2001). […]

U87MG CSCs = experiment: Gene expression by qRT-PCR in cancer stem cells; assay type: cell-based; settings: 1 μM for 48 hours
Experimental: as §1

BT549 cells [1] = experiment: Propidium iodide / FITC-Annexin V flow cytometry; assay type: cell-based; settings: 1 μM, 48 hours
Experimental: (§2) FIGS. 3A-3D: FOXO1 Inhibitor Treatment led to Apoptosis. (FIGS. 3A-3C) LN229 and BT549 cells were treated with 1 μM AS1842856 and were stained with propidium iodide and FITC-Annexin V followed by flow cytometric analyses. […] (FIG. 3D) Western blot analyses were performed with BT549 and LN229 samples that were treated with AS1842856. Both cell lines had increased caspase 3 cleavage.
(§3) FOXO1 inhibition led to apoptosis induction based on Caspase 3 cleavage and flow cytometric analyses. To clarify the impact of FOXO1 on BBC and GBM cell viability, BT549 and LN229 cells were treated with AS1842856 for 48 and 72 hours respectively.

LN229 cells = experiment: Propidium iodide / FITC-Annexin V flow cytometry; assay type: cell-based; settings: 1 μM, 72 hours
Experimental: as §2, §3

[2] = test system: HCT116 colon cancer cells; experiment: Gene expression by qRT-PCR (TUBB reference); assay type: cell-based; settings: 48 hours
U87MG cells = experiment: Gene expression by qRT-PCR (TUBB reference); assay type: cell-based
Experimental: (§4) Cell culture and drug treatments. Cell lines were obtained from ATCC (American Type Culture Collection, Manassas, VA) and grown under standard conditions (5% CO2, 10% FBS (fetal bovine serum), with 5% antifungal/antibacterial). Cell lines were tested for Mycoplasma using the MycoAlert Mycoplasma Detection Kit (Lonza, Basel Switzerland, cat: LT07-218); all experiments were done with mycoplasma negative cells. U87MG cells were propagated in MEM (Minimal Essential Medium). BT549 and DBTRG cells were propagated in RPMI (Roswell Park Memorial Institute 1640 Medium). LN18, U118MG, A172 and LN229 cells were propagated in DMEM (Dulbecco's Modified Eagle Medium). Neurosphere/cancer stem cell cultures for U87MG and BT549 cell lines were plated with 40,000 cells per mL in 3D Tumorsphere Medium XF (Sigma cat: C-28070, Burlington, MA). BT549 cancer stem cell cultures were supplemented with 1XB27 XenoFree CTS (Gibco/Thermo Fisher Waltham, MA, USA). AS1842856 was purchased from Calbiochem (Danvers, MA) and utilized at 200 nM, 500 nM and 1 μM final concentrations as indicated. AS1708727 was purchased from MedChem Express (Monmouth Junction, NJ) and was used at 0.5 μM, 1.0 µM and 2.0 μM concentrations. 5-aza-2′-deoxycytidine (5-AZA) was purchased from Millipore/Sigma (Burlington, MA) and utilized at a final concentration of 3 μM. Total RNA was prepared using the Qiagen RNeasy kit (Hilden, Germany), which was then used to generate cDNA using Superscript Reverse Transcriptase II (Invitrogen, Carlsbad, CA). Samples (cDNAs) were analyzed using (Power SYBR Green Master Mix, Applied Biosystems, Foster City, CA) and the ABI Step-One Real-time system (Carlsbad, CA). Expression levels were normalized to Beta-Tubulin, TUBB in gene expression experiments and calculated using 2-4ACT method (Livak et al., 2001). Primer sequences are detailed in Table 1.

LN18 = experiment: Gene expression by qRT-PCR (TUBB reference); assay type: cell-based; settings: 1 μM for 48 hours
Experimental: as §4

DBTRG = experiment: Gene expression by qRT-PCR (TUBB reference); assay type: cell-based; settings: 1 μM for 48 hours
Experimental: as §4

LN229 = experiment: Gene expression by qRT-PCR (TUBB reference); assay type: cell-based; settings: 1 μM for 48 hours
Experimental: as §4

A172 = experiment: Gene expression by qRT-PCR (TUBB reference); assay type: cell-based; settings: 1 μM for 48 hours
Experimental: as §4

MDA-MB-468 = experiment: Colony formation assay (crystal violet); assay type: cell-based; settings: treated five days
MDA-MB-468 cells = experiment: Gene expression by qRT-PCR (TUBB reference); assay type: cell-based
Experimental: as §4, with “μM concentrations. 5-aza-2'-deoxycytidine (5-AZA) was” for “μM concentrations. 5-aza-2′-deoxycytidine (5-AZA) was”, “Table 1. MDA-MB-468 cells were grown to log phase in DMEM with 10% FBS without antibiotics. BT549 cells were grown to log phase in DMEM with 10% FBS without antibiotics. Cells were transfected with FOXO1 esiRNA (EHU156591 Sigma, St. Louis, MO) or EGFP control esiRNA (EHUEGFP) using Lipofectamine 3000 (utilized only […] reagent, Invitrogen, Carlsbad, CA).” for “Table 1.”

BT549 cells [3] = experiment: Gene expression by qRT-PCR (TUBB reference); assay type: cell-based
Experimental: as §4, with “μM concentrations. 5-aza-2'-deoxycytidine (5-AZA) was” for “μM concentrations. 5-aza-2′-deoxycytidine (5-AZA) was”, “Table 1. MDA-MB-468 cells were grown to log phase in DMEM with 10% FBS without antibiotics. BT549 cells were grown to log phase in DMEM with 10% FBS without antibiotics. Cells were transfected with FOXO1 esiRNA (EHU156591 Sigma, St. Louis, MO) or EGFP control esiRNA (EHUEGFP) using Lipofectamine 3000 (utilized only […] reagent, Invitrogen, Carlsbad, CA).” for “Table 1.”

Chain of FOXO1 (Q12778 whole entry, species assumed): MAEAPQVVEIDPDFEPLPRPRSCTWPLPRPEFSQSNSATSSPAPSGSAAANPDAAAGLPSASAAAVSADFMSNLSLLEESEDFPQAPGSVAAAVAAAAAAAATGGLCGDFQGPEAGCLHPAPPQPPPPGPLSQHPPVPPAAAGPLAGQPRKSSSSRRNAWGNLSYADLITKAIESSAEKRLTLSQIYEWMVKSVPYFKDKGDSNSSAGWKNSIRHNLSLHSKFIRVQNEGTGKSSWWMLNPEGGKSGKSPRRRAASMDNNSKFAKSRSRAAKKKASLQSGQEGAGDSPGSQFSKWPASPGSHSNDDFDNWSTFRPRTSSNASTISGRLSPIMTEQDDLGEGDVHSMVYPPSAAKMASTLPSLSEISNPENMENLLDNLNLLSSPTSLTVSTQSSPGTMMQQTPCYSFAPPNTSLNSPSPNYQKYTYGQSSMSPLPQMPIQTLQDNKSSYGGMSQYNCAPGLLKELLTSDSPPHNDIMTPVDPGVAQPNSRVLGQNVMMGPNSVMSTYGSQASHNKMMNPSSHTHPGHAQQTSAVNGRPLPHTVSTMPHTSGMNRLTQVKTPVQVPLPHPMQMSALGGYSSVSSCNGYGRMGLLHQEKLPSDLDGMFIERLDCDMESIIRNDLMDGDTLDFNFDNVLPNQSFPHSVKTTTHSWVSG

SMILES: CCn1cc(C(=O)O)c(=O)c2c(N)c(F)c(NC3CCCCC3)cc21 [AS1842856, 5-Amino-7-(cyclohexylamino)-1-ethyl-6-fluoro-4-oxo-1,4-dihydroquinoline-3-carboxylic acid]
- FOXO1 DNA binding and transactivation (FOXO1): reduces DNA binding and transactivation
- FAS and BIM expression (BT549 CSCs): FAS and BIM were induced
- FAS and BIM expression (U87MG CSCs): FAS and BIM were induced
- Annexin V-FITC and/or PI staining (indicators of apoptosis) (BT549 cells [1]): positive for Annexin V-FITC and/or PI
- Annexin V-FITC and/or PI staining (indicators of apoptosis) (LN229 cells): positive for Annexin V-FITC and/or PI
- FAS gene expression [2]: induced the FAS gene
- FAS expression (U87MG cells): induced
- apoptotic genes FAS and/or BIM expression (U87MG cells; 1 μM for 48 hours): induced apoptotic genes FAS and/or BIM
- apoptotic genes FAS and/or BIM expression (LN18): induced apoptotic genes FAS and/or BIM
- apoptotic genes FAS and/or BIM expression (DBTRG): induced apoptotic genes FAS and/or BIM
- apoptotic genes FAS and/or BIM expression (LN229): induced apoptotic genes FAS and/or BIM
- apoptotic genes FAS and/or BIM expression (A172): induced apoptotic genes FAS and/or BIM
- colony formation (MDA-MB-468): fewer cells with 200 nM drug treatment with further reductions using 500 nM and 1 μM drug
- FAS and BIM gene induction, comparison of the two inhibitors (MDA-MB-468 cells): robustly caused FAS and BIM
- apoptotic genes FAS and/or BIM expression (MDA-MB-468 cells; 1 μM for 48 hours): induced apoptotic genes FAS and/or BIM
- FOXO1 expression (MDA-MB-468 cells; 48 hours of treatment): decreased FOXO1 expression
- FAS and BIM gene induction, comparison of the two inhibitors (BT549 cells [3]): robustly caused FAS and BIM
- FOXO1 gene expression (BT549 cells [3]; 1 μM for 48 hours): increased FOXO1 gene expression
- apoptotic genes FAS and/or BIM expression (BT549 cells [3]; 1 μM for 48 hours): induced apoptotic genes FAS and/or BIM
